Our source for the EC50 values is publication PMC8450354, “Codon Optimization of Insect Odorant Receptor Genes May Increase Their Stable Expression for Functional Characterization in HEK293 Cells” (Frontiers in Cellular Neuroscience, 2021).

Holding throughout (assay): calcium fluorescence (Fluo-4AM) assay, inducible stable HEK293 cells
Holding throughout (type): cell-based

One assay addresses T1, ItypOR25 (Ips typographus, UniProt A0A8F3ERC7).
T1 construct: full-length, N-terminal V5 tag, codon-optimized gene; with ItypOrco
T1 sequence (A0A8F3ERC7 1-394): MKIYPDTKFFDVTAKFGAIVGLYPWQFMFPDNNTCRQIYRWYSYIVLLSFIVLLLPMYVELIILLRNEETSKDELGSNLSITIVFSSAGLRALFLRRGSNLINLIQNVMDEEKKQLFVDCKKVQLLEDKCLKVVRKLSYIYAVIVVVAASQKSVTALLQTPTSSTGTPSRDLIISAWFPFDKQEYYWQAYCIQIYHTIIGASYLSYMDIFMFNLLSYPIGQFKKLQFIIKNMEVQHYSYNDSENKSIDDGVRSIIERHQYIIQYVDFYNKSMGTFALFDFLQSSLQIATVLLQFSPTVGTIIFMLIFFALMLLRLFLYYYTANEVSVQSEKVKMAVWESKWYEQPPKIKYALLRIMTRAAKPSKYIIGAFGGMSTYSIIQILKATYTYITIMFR
T1 sequence (A0A7L8XYY7 1-480 partner): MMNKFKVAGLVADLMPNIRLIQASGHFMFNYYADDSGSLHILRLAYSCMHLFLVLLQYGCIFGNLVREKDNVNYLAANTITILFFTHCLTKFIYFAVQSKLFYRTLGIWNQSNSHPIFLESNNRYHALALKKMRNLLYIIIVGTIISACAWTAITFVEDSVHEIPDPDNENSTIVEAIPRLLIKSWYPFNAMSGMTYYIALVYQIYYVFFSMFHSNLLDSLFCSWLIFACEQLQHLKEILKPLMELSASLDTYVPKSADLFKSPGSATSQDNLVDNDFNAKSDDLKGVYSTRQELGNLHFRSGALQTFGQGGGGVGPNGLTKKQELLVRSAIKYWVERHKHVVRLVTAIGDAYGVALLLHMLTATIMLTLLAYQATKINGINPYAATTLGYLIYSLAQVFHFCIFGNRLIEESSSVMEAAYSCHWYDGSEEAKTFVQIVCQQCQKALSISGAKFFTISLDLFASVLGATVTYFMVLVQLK

The next assay concerns the target T2, ItypOR49 (Ips typographus, UniProt A0A7L8XYT4).
T2 construct: full-length, N-terminal V5 tag, codon-optimized gene; with ItypOrco

A further assay has as its target T3, ItypOrco (Ips typographus, UniProt A0A7L8XYY7).
T3 construct: full-length, N-terminal Myc tag, codon-optimized gene, expressed without an OR

T2 sequence (A0A7L8XYT4 entry or part of it, one chain of several): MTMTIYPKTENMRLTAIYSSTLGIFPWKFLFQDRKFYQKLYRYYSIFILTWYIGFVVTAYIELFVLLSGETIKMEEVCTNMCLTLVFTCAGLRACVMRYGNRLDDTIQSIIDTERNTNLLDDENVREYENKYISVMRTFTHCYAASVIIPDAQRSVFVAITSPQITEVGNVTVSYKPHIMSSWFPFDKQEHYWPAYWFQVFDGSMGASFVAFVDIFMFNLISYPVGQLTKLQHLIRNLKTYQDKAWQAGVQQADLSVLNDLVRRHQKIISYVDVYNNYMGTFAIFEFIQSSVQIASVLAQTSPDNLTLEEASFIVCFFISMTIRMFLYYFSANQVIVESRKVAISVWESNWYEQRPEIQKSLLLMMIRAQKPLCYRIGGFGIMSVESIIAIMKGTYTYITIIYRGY

Consider `CC1=CC[C@@H]2[C@H](C1)C2(C)C` [(+)-3-carene], for which, at ItypOR25, the EC50 (usually the concentration giving half of the maximal effect) was approximately 24.5 µM. Turning to `C=CC(=C)C[C@@H](O)C=C(C)C` [(R)-(−)-ipsdienol], the EC50 on ItypOR49 was 7.1 µM. Take `CCc1ccc(NC(=O)CSc2nnc(-c3cccnc3)n2CC)cc1` [VUAA1]: the EC50 on ItypOrco was 21.1 µM.
